From patent publication US20150118179A1, “BIOCIDAL COMPOUNDS AND METHODS FOR USING SAME” (UNIVERSITY OF MANITOBA, priority 2012, published 2015)
Several values for one entry are separate records, joined by “and”; a condition that tells them apart may be missing. Equal values may be shown once.

Tests used:
[1] = test system: methicillin resistant Staphylococcus aureus (MRSA 40065); format: cell-based; conditions: Table 10, contact 1-60 min, inoculum 10^6 cfu/ml
Method: (§1) Pseudomonas aeruginosa (P. aeruginosa) (#73104, Gram-negative) and Staphylococcus aureus (MRSA) (#40065, Gram-positive) were used as the model microorganism to challenge the antibacterial function of the compounds. It should be noticed that both P. aeruginosa and MRSA are biosafety level 2 microorganisms and potentially biohazardous, therefore the following antibacterial assessments were carried out in a Biological Safety Level 2 cabinet and safety precautions were strictly followed.
(§2) Tryptone Soya agar plates were used as platforms for bacterial cell growth and were prepared following the instructions on the bottle (CM 0131, OXOID). The prepared agar was kept at 65° C. after being autoclaved and the resulting agar plates were stored in fridge at 3-4° C. All glassware and related materials were subjected to autoclave or disinfection with 70% ethanol prior to use.
(§3) Several colonies of each bacteria type were suspended in broth solutions (cation-supplemented Mueller-Hinton broth for P. aeruginosa and tryptic soy broth for MRSA) whose concentrations were equivalent to a 0.5 McFarland standard (1×10^8 cfu/ml). This suspension was then diluted 1:100 and 20 μL of the diluted suspension was further diluted in 60 ml of cation-supplemented Mueller-Hinton broth or tryptic soy broth. Then the prepared bacteria inoculums were incubated overnight at 37° C. to obtain logarithmic-phase cultures. For each microbial study, 0.2 ml (0.02 ml for P. aeruginosa) of the cell suspension was diluted in 19.8 mL (19.98 ml for P. aeruginosa) of phosphate-buffered Saline (PBS, 0.1 M Sodium phosphate monobasic, 0.1 M Sodium phosphate dibasic, pH 7.4) to give a cell concentration of 10^6-10^7 cfu/mL (10^5 cfu/ml for P. aeruginosa). 30 μL of each synthesized compound solution (0.28 N stock solution) were added into the cell suspension to achieve a [Cl^+] of 15 ppm and start timing instantly. The mixture was vortexed several times during the reaction. After contact for the desired time intervals, 1.0 ml cell suspension was withdrawn and added to 1.0 ml of 0.02 N sodium thiosulfate and/or Letheen (1% lecithin, 10% peptone and 0.5% tween 80 dissolved in PBS at pH 7.4) to quench the bactericidal effect. The quenched suspension was then serially diluted (10 times less concentrated than the previous one) and 100 μL of each dilution was placed onto agar plates. The same procedure was applied to the blanks as controls with the same matrices but with no synthesized compounds added. Bacterial colonies on the agar plates were enumerated after being incubated at 37° C. for 22 hours.
(§4) Percentage reduction of bacteria (%)=(A−B)/A×100
(§5) Where A is the number of bacterial colonies in the control (cfu/mL), and B is the number of bacteria colonies under the effect of the synthesized compounds.

P. aeruginosa (73104) = assay: Antibacterial assessment in PBS suspension (Example 19); format: cell-based, Pseudomonas aeruginosa; conditions: Table 10, contact 3-60 min, inoculum 10^5 cfu/ml
Method: as §1, §2, §3, §4, §5

CA-MRSA 40065 = assay: Biocidal activity in bacterial suspension (Example 18); format: cell-based, Staphylococcus aureus; conditions: 15 ppm [Cl+]
Method: Logarithmic-phase cultures of MRSA were prepared using similar way except TSA broth was used instead.
(§6) Biocidal activity of synthetic compounds was completed as followed. To 20 mL of bacterial suspension (10^5 or 10^6 cfu/mL) in a centrifuge tube was added 30 μL solution of synthetic compounds (0.282 M stock solution) to achieve a final [Cl^+] of 15 ppm. Timing of the exposure to the disinfectant was started immediately with the addition of the synthetic compound. After predetermined contact time, 1.0 mL aliquots were withdrawn and added to an equal volume of 0.02 N sodium thiosulfate in PBS (0.1 M, pH 7.4). The quenched suspension was serially diluted and 100 μL of each resulting dilution was placed onto nutrient agar plates. After being incubated at 37° C. for 24 hours, the viable bacterial colonies on the plates were counted. Bacterial reduction was reported according to:
as §4
(§7) Log reduction=Log(A/B) (4)
(§8) where A is the number of bacteria in the starting inoculum (cfu/mL), and B is the number of bacteria retrieved from synthetic compounds (cfu/mL).

P. aeruginosa 73104 = assay: as above; format: cell-based, Pseudomonas aeruginosa; conditions: 15 ppm [Cl+]; for Reduction of P. aeruginosa: 10^6 cfu/mL P. aeruginosa, within 60 min of contact
Method: Logarithmic-phase cultures of P. aeruginosa were prepared by initially suspending several colonies in cation-supplemented Mueller-Hinton broth (Oxoid, Nepean, Ontario, Canada) at a density equivalent to a 0.5 McFarland standard (1×10^8 cfu/mL). This suspension was then diluted 1:100 and 20 μL of the diluted suspension was further diluted in 60 mL of cation-supplemented Mueller-Hinton broth. Following overnight growth at 37° C., suspensions were diluted 1:[…] to get inoculums of approximately 1×10^6 or 1×10^5 cfu/mL.
as §6, §4, §7, §8

[2] = Table 2, contact 3 min, inoculum 1.57-1.75 × 10^6 CFU/mL
[3] = Table 2, contact 5 min, inoculum 1.57-1.75 × 10^6 CFU/mL
[4] = Table 2, contact 10 min, inoculum 1.57-1.75 × 10^6 CFU/mL
[5] = Table 2, contact 60 min, inoculum 1.57-1.75 × 10^6 CFU/mL
[6] = Table 3, contact 3 min, inoculum 2.26 × 10^5 CFU/mL
[7] = Table 3, contact 5 min, inoculum 2.26 × 10^5 CFU/mL
[8] = Table 3, contact 10 min, inoculum 2.26 × 10^5 CFU/mL
[9] = Table 3, contact 60 min, inoculum 2.26 × 10^5 CFU/mL
[10] = Table 3, contact 90 min, inoculum 2.26 × 10^5 CFU/mL
[11] = Table 4, contact 3 min, inoculum 2.26-2.98 × 10^5 CFU/mL
[12] = Table 4, contact 5 min, inoculum 2.26-2.98 × 10^5 CFU/mL
[13] = Table 4, contact 10 min, inoculum 2.26-2.98 × 10^5 CFU/mL
[14] = Table 4, contact 20 min, inoculum 2.26-2.98 × 10^5 CFU/mL
[15] = Table 4, contact 30 min, inoculum 2.26-2.98 × 10^5 CFU/mL
[16] = Table 4, contact 45 min, inoculum 2.26-2.98 × 10^5 CFU/mL
[17] = Table 4, contact 60 min, inoculum 2.26-2.98 × 10^5 CFU/mL
[18] = Table 2, contact 1 min, inoculum 1.57-1.75 × 10^6 CFU/mL
[19] = Table 5, contact 3 min, inoculum 2.83 × 10^6 cfu/mL
[20] = Table 5, contact 5 min, inoculum 2.83 × 10^6 cfu/mL
[21] = Table 5, contact 10 min, inoculum 2.83 × 10^6 cfu/mL
[22] = Table 5, contact 20 min, inoculum 2.83 × 10^6 cfu/mL
[23] = Table 5, contact 30 min, inoculum 2.83 × 10^6 cfu/mL
[24] = Table 5, contact 45 min, inoculum 2.83 × 10^6 cfu/mL
[25] = Table 5, contact 60 min, inoculum 2.83 × 10^6 cfu/mL

SMILES | Bacteria reduction % (CA-MRSA 40065; [2]) | Bacteria reduction Log10 (CA-MRSA 40065; [2]) | Bacteria reduction % (CA-MRSA 40065; [3]) | Bacteria reduction Log10 (CA-MRSA 40065; [3]) | Bacteria reduction % (CA-MRSA 40065; [4]) | Bacteria reduction Log10 (CA-MRSA 40065; [4]) | Bacteria reduction % (P. aeruginosa 73104; [11]) | Bacteria reduction Log (P. aeruginosa 73104; [11]) | Bacteria reduction % (P. aeruginosa 73104; [12]) | Bacteria reduction Log (P. aeruginosa 73104; [12]) | Bacteria reduction % (P. aeruginosa 73104; [13]) | Bacteria reduction Log (P. aeruginosa 73104; [13]) | Bacteria reduction % (P. aeruginosa 73104; [14]) | Bacteria reduction Log (P. aeruginosa 73104; [14]) | Bacteria reduction % (P. aeruginosa 73104; [15]) | Bacteria reduction Log (P. aeruginosa 73104; [15]) | Bacteria reduction % (P. aeruginosa 73104; [16]) | Bacteria reduction Log (P. aeruginosa 73104; [16]) | Bacteria reduction % (P. aeruginosa 73104; [17]) | Bacteria reduction Log (P. aeruginosa 73104; [17]) | further results
CCCCCC[N+](C)(C)CCCN1C(=O)NC(C)(C)C1=O [Compound 5] |  |  |  |  |  |  |  |  |  |  |  |  |  |  |  |  |  |  |  |  | Bactericidal effect (bacteria reduction at various contact time) [1]: No bactericidal effect; Bactericidal effect (bacteria reduction at various contact time) (P. aeruginosa (73104)): No bactericidal effect
CC1(C)C(=O)N(CCC[N+](C)(C)CC[N+](C)(C)C)C(=O)N1Cl.[Cl-].[Cl-] [Compound 12] | 88.0% | 0.92 Log10 | 92.3% | 0.92 Log10 | 94.2% | 1.24 Log10 | 39.8% | 0.22 Log | 44.7% | 0.26 Log | 62.8% | 0.43 Log | 99.70% | 2.50 Log | 100% | 4.82 Log | 100% | 5.47 Log | 100% | 5.47 Log | Bacteria reduction % (CA-MRSA 40065; [5]): 99.5%; Bacteria reduction Log10 (CA-MRSA 40065; [5]): 2.31 Log10; Reduction of P. aeruginosa (P. aeruginosa 73104): cannot bring any significant reduction; Bacteria reduction % (P. aeruginosa 73104; [6]): 39.8 ± 10.0%; Bacteria reduction % (P. aeruginosa 73104; [7]): 44.7 ± 1.9%; Bacteria reduction Log10 (P. aeruginosa 73104; [8]): 0.43 ± 0.01 Log10; Bacteria reduction % (P. aeruginosa 73104; [9]): 100%; Bacteria reduction Log10 (P. aeruginosa 73104; [9]): 5.35 Log10; Bacteria reduction % (P. aeruginosa 73104; [10]): 100%; Bacteria reduction Log10 (P. aeruginosa 73104; [10]): 5.35 Log10
CC1(C)C(=O)N(CCC[N+](C)(C)CCCN2C(=O)N(Cl)C(C)(C)C2=O)C(=O)N1Cl.[Cl-] [Compound 14] | 79.1% | 0.68 Log10 | 64.3% | 0.45 Log10 | 91.9% | 1.09 Log10 | 22.6% | 0.11 Log | 24.8% | 0.13 Log | 26.6% | 0.14 Log | 70.8% |  | 99.96% | 3.39 Log | 100% | 5.47 Log | 100% | 5.47 Log | Bacteria reduction % (CA-MRSA 40065; [18]): 85.8%; Bacteria reduction Log10 (CA-MRSA 40065; [18]): 0.85 Log10; Bacteria reduction % (CA-MRSA 40065; [5]): 99.5%; Bacteria reduction Log10 (CA-MRSA 40065; [5]): 2.32 Log10; Reduction of P. aeruginosa (P. aeruginosa 73104): cannot bring any significant reduction; Bacteria reduction % (P. aeruginosa 73104; [6]): 22.6 ± 4.4%; Bacteria reduction % (P. aeruginosa 73104; [7]): 24.8 ± 10.0%; Bacteria reduction % (P. aeruginosa 73104; [8]): 26.6% and 26.6 ± 12.5%; Bacteria reduction Log10 (P. aeruginosa 73104; [8]): 0.14 ± 0.07 Log10; Bacteria reduction % (P. aeruginosa 73104; [9]): 100%; Bacteria reduction Log10 (P. aeruginosa 73104; [9]): 5.35 Log10; Bacteria reduction % (P. aeruginosa 73104; [10]): 100%; Bacteria reduction Log10 (P. aeruginosa 73104; [10]): 5.35 Log10
CCCCCCCCCCCC[N+](C)(C)CCn1cc(C[N+](C)(C)CCCN2C(=O)NC(C)(C)C2=O)nn1 [Compound 15] |  |  |  |  |  |  | 75.7% | 0.74 Log | 98.4% | 1.88 Log | 99.9% | 3.02 Log | 99.97% | 4.32 Log | 100% | 5.47 Log | 100% | 5.47 Log | 100% | 5.47 Log | Bacteria reduction % (CA-MRSA 40065; [19]): 86.9%; Bacteria reduction % (CA-MRSA 40065; [20]): 79.5%; Bacteria reduction Log (CA-MRSA 40065; [20]): 0.69 Log; Bacteria reduction % (CA-MRSA 40065; [21]): 85.1%; Bacteria reduction Log (CA-MRSA 40065; [21]): 0.83 Log; Bacteria reduction % (CA-MRSA 40065; [22]): 67.8%; Bacteria reduction Log (CA-MRSA 40065; [22]): 0.49 Log; Bacteria reduction % (CA-MRSA 40065; [23]): 79.8%; Bacteria reduction Log (CA-MRSA 40065; [23]): 0.70 Log; Bacteria reduction % (CA-MRSA 40065; [24]): 92.6%; Bacteria reduction Log (CA-MRSA 40065; [24]): 1.13 Log; Bacteria reduction % (CA-MRSA 40065; [25]): 87.3%; Bacteria reduction Log (CA-MRSA 40065; [25]): 0.89 Log; Bacteria reduction % (CA-MRSA 40065; independent of contact duration (3-60 minutes)): around 80%
CCCCCCCCCCCC[N+](C)(C)CCn1cc(C[N+](C)(C)CCCN2C(=O)N(Cl)C(C)(C)C2=O)nn1 [Compound 16] |  |  |  |  |  |  | 99.6% | 2.62 Log | 99.97% | 4.32 Log | 100% | 5.47 Log | 100% | 5.47 Log | 100% | 5.47 Log | 100% | 5.47 Log | 100% | 5.47 Log | Bacteria reduction % (CA-MRSA 40065; [19]): 84.4%; Bacteria reduction % (CA-MRSA 40065; [20]): 93.4%; Bacteria reduction Log (CA-MRSA 40065; [20]): > 1 Log and 1.18 Log; Bacteria reduction % (CA-MRSA 40065; [21]): 99.8%; Bacteria reduction Log (CA-MRSA 40065; [21]): 2.77 Log; Bacteria reduction % (CA-MRSA 40065; [22]): 100%; Bacteria reduction Log (CA-MRSA 40065; [22]): 6.45 Log; Bacteria reduction % (CA-MRSA 40065; [23]): 100%; Bacteria reduction Log (CA-MRSA 40065; [23]): 6.45 Log; Bacteria reduction % (CA-MRSA 40065; [24]): 100%; Bacteria reduction Log (CA-MRSA 40065; [24]): 6.45 Log; Bacteria reduction % (CA-MRSA 40065; [25]): 100%; Bacteria reduction Log (CA-MRSA 40065; [25]): 6.45 Log
